The results in this text go back to patent publication US20250304576A1 (Cancer Research Technology Limited, priority 2022, published 2025).

The target of one test is T1, IKBKB (IKKβ) (Homo sapiens, UniProt O14920).
T1 construct: purchased Life Technologies (assay performed by the vendor)
T1 sequence (O14920 1-756): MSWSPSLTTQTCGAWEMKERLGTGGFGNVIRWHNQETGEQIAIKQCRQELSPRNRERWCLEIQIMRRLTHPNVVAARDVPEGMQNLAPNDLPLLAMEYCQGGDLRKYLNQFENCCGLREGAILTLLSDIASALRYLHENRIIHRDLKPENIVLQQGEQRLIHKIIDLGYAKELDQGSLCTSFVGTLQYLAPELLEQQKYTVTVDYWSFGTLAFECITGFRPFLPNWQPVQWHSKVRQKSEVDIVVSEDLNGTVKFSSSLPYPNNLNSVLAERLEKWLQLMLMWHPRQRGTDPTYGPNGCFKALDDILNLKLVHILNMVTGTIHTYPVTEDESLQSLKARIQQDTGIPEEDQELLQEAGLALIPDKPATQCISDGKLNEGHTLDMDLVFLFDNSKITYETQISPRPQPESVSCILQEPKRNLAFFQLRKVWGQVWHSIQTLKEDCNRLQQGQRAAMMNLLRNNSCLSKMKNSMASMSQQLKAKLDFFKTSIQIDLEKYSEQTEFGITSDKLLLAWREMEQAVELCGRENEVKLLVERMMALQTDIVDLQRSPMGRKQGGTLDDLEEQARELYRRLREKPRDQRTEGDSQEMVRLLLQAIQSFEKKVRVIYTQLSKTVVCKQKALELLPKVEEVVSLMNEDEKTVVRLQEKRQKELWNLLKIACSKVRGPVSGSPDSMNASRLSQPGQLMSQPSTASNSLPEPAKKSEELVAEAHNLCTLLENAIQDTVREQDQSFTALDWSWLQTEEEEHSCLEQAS
The test can be described thus: Z'-LYTE IKKβ assay (Life Technologies). It is filed as biochemical. The protocol:
IKKα and IKKβ inhibitory activity was determined using three different assays: a dissociation enhanced ligand fluorescent immunoassay (DELFIA) based on the protocol of HTScan™ IKKβ Kinase Assay (Cell Signaling Technology, USA); an Adapta IKKα assay (performed by Life Technologies); a Z′-LYTE™ IKKβ assay (performed by Life Technologies).
The reaction was performed in low volume NBS, black 384-well plates (Corning model 4514).
The test compounds were screened in 1% DMSO (final) in the well. For 10 point titrations, 3-fold serial dilutions were conducted from the starting concentration of 50 mM.
The 2× IKBKB (IKKβ)/Ser/Thr 05 mixture was prepared in 50 mM HEPES pH 7.5, 0.01% BRIJ-35, 10 mM MgCl2, 1 mM EGTA. The final 10 μL Kinase Reaction consisted of 0.62-4 ng IKBKB (IKKβ) and 2 μM Ser/Thr 05 in 50 mM HEPES pH 7.5, 0.01% BRIJ-35, 10 mM MgCl2, 1 mM EGTA.
5 μL of 2× Kinase reaction was incubated with 2.5 μL of ATP solution diluted to a 4× working concentration in Kinase Buffer (50 mM HEPES pH 7.5, 0.01% BRIJ-35, 10 mM MgCl2, 1 mM EGTA) in the presence of […] of 100× test compound in 100% DMSO and 2.4 μL of Kinase buffer.
The resulting kinase reaction was allowed to incubate for 1 hour at room temperature before 5 μL of a 1:64 dilution of Development Reagent B was added and the resulting Development Reaction was incubated for another hour at room temperature. Then the plate was read on a fluorescence plate reader and the data analysed.
A ratiometric method, which calculated the Emission Ratio of donor emission (i.e. coumarin) to acceptor emission (i.e. fluorescein) after excitation of the donor fluorophore at 400 nm, was used to quantitate reaction progress, as shown in the equation below.

The next test addresses T2, Recombinant IKKβ (Homo sapiens, UniProt O14920).
T2 construct: purchased Millipore, Dundee, UK
T2 sequence (O14920 1-756): T1 sequence (O14920 1-756)
The test can be described thus: DELFIA IKKβ kinase assay (apparent Ki, Cheng-Prusoff). It is filed as biochemical. The following applies: DELFIA assay (first line of an example). The gist of the method: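 DELFIA time-resolved fluorescence (ex 340/em 615 nm) quantified phosphorylation of a biotinylated IκB-α Ser32 peptide (0.375 μM) by 37 nM recombinant IKKα or IKKβ. Reactions used 40 μM ATP, Tris pH 7.5 buffer with MgCl2, DTT and BSA, 60 min at 30° C. Cheng-Prusoff equation gave apparent Ki.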

One may read the IC50 as the concentration needed to halve the response being measured. A lower IC50 goes with greater potency.

As for `Nc1n[nH]c2ccc(-c3ccnc4[nH]c(CCN5CCCCC5)cc34)cc12` [Example 267, 5-(2-(2-(Piperidin-1-yl)ethyl)-1H-pyrrolo[2,3-b]pyridine-4-yl)-1H-indazol-3-amine], the IC50 at IKBKB (IKKβ) was 0.235 µM. Moreover, the Ki at Recombinant IKKβ amounted to 1.38 µM.
The matching figures for `Nc1n[nH]c2ccc(-c3ccnc4[nH]c(CCN5CCOCC5)cc34)cc12` [Example 268, 5-(2-(2-Morpholinoethyl)-1H-pyrrolo[2,3-b]pyridin-4-yl)-1H-indazol-3-amine]: 0.138 µM and 0.251 µM.
On the same counts, the results for `Nc1n[nH]c2ccc(-c3ccnc4[nH]c(CCCN5CCCCC5)cc34)cc12` [Example 269, 5-(2-(3-(Piperidin-1-yl)propyl)-1H-pyrrolo[2,3-b]pyridin-4-yl)-1H-indazol-3-amine] are 0.046 µM and 0.507 µM.
The matching figures for `Nc1n[nH]c2ccc(-c3ccnc4[nH]c(CCCN5CCOCC5)cc34)cc12` [Example 271, 5-(2-(3-Morpholinopropyl)-1H-pyrrolo[2,3-b]pyridin-4-yl)-1H-indazlo-3-amine]: 0.111 µM and 0.126 µM.
On IKBKB (IKKβ), `Nc1n[nH]c2ccc(-c3ccnc4[nH]c(CC5CCNCC5)cc34)cc12` [Example 272, 5-(2-(Piperidin-4-ylmethyl)-1H-pyrrolo[2,3-b]pyridin-4-yl)-1H-indazol-3-amine] gave an IC50 of 0.053 µM. For the same molecule, the Ki on Recombinant IKKβ amounted to 0.05 µM.
